This passage reports IC50 results from US20100168102A9, “Amide Derivatives as Kinase Inhibitors” (Devgen NV, priority 2005, published 2010).

The target in one assay is T1, PKC epsilon (Homo sapiens, UniProt Q02156).
T1 construct: purchased Invitrogen P2282
T1 sequence (Q02156 1-737): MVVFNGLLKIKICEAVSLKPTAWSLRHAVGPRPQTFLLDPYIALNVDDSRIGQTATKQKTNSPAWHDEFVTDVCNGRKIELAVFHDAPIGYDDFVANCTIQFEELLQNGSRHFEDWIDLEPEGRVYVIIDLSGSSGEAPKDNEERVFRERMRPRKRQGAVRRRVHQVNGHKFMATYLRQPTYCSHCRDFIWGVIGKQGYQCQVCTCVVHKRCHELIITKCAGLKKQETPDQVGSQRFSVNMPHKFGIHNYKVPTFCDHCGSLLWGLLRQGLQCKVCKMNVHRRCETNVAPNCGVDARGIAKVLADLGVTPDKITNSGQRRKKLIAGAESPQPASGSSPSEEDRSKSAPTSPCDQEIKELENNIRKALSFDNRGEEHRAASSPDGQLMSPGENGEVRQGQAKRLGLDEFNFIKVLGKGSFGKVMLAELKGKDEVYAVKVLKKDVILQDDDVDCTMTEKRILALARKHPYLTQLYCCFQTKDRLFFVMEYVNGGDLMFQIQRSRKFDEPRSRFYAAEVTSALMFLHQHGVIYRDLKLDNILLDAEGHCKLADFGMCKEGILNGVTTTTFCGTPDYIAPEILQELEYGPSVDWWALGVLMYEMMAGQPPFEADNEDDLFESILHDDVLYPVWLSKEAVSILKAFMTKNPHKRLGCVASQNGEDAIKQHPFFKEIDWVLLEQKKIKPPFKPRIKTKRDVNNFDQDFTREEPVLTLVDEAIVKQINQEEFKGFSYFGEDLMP
The assay can be described thus: Biochemical assay for PKC epsilon (fluorescence polarization, Protein Kinase C Assay Kit, Red). As to conditions: read-out: IC50 μM PKCε. In short, it runs like this: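 PKC epsilon at 10 ng/ml final was preincubated 30 min at room temperature with compound in HEPES pH 7.4 with DTT and Triton X-100. ATP/protein substrate was then added in buffer with MgCl2 and CaCl2 for 80 min. The reaction was stopped with EDTA, phosphorylation was detected by fluorescence polarization with rhodamine tracer and anti-phosphoserine antibody, and IC50 values came from curve fits.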
On the technique in general: In fluorescence polarisation assays a small probe gives low polarisation when free and higher when bound to something large.

The target in a further assay is T2, human ROCKα/ROCKII mix (Homo sapiens, UniProt O75116).
T2 construct: purchased Upstate Biotechnology 14-451
Description: Biochemical assay for ROCK (fluorescence polarization, ROCK IMAP Kit).

Setting [1] is: Table 2, compounds of Formula XIII.
[2] abbreviates: compounds of Formula XIV, Table 3.

Structures can show the parent of a compound that is named as a salt. Where two headings read alike, the source gives them in different places.

T2 sequence (O75116 11-552 limits assumed): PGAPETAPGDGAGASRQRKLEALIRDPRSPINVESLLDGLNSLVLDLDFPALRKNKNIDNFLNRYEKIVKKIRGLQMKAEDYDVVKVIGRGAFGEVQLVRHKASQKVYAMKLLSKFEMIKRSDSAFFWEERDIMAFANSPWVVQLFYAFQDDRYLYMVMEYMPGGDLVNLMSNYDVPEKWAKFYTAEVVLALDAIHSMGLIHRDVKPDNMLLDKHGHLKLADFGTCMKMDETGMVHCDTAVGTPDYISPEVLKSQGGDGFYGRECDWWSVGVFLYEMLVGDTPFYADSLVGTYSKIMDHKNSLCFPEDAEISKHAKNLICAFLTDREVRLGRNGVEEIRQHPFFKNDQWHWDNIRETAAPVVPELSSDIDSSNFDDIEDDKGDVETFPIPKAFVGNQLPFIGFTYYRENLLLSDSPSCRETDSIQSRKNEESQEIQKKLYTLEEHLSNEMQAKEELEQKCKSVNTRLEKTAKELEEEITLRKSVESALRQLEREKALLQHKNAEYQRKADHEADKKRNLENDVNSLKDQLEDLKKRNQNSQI

As usually defined, the IC50 is the midpoint of a concentration-inhibition curve. In the case of `NC(CNC(=O)c1ccc(Cl)cc1)c1ccc(C(=O)Nc2ccncc2)cc1` (centres unmarked) [Compound 90, 4-[1-amino-2-(4-chloro-benzoylamino)-ethyl]-N-pyridin-4-yl-benzamide], the values for the IC50 at PKC epsilon (setting [1]) and against human ROCKα/ROCKII mix (setting [1]) were 5 to 50 µM and 0.5 to 5 µM, respectively.

For the compound `COc1ccc(C2(C(=O)N(C)CC(N)c3ccc(C(=O)Nc4ccncc4)cc3)CC2)cc1` (centres unmarked) [Compound 428, 4-(1-Amino-2-{[1-(4-methoxy-phenyl)-cyclopropanecarbonyl]-methyl-amino}-ethyl)-N-pyridin-4-yl-benzamide], the 50% inhibitory concentration (IC50) on PKC epsilon was 5 to 50 µM; at human ROCKα/ROCKII mix, 0.5 to 5 µM.

For `NC(CC(=O)NCc1ccc(C(F)(F)F)c(F)c1)c1ccc(C(=O)Nc2ccncc2)cc1` (centres unmarked) [Compound 267, 4-[1-Amino-2-(3-fluoro-4-trifluoromethyl-benzylcarbamoyl)-ethyl]-N-pyridin-4-yl-benzamide], the IC50 was in the range of 0.5 to 5 µM on PKC epsilon (setting [2]) and 0.05 to 0.5 µM against human ROCKα/ROCKII mix (setting [2]).

On to “4-{1-Amino-2-[(2-1H-indol-3- yl-acetyl)-methyl- amino]-ethyl}- N-pyridin-4-yl-benzamide [Compound 443]”, for which the IC50 at PKC epsilon lay within 5 to 50 µM; against human ROCKα/ROCKII mix, 0.5 to 5 µM.

Regarding `N[C@H](CC(=O)NC1COc2ccccc21)c1ccc(C(=O)Nc2ccncc2)cc1` (mixture of isomers) [Compound 403, 4-[(R)-1-Amino-2-(2,3-dihydro-benzofuran-3-ylcarbamoyl)-ethyl]-N-pyridin-4-yl-benzamide dihydrochloric acid salt], the IC50 on PKC epsilon and against human ROCKα/ROCKII mix was under 0.05 µM each time.

As to `Cc1ccccc1NC(=O)NCC(N)c1ccc(C(=O)Nc2ccncc2)cc1` (centres unmarked) [Compound 25, 4-[1-amino-2-(3-o-tolyl-ureido)-ethyl]-N-pyridin-4-yl-benzamide], the figures for the half-inhibitory concentration (IC50) at PKC epsilon and against human ROCKα/ROCKII mix were 0.5 to 5 µM and 0.05 to 0.5 µM, respectively.

On to `CC(=O)NCC(N)c1ccc(C(=O)Nc2ccncc2)cc1` (centres unmarked) [Compound 31, 4-(2-Acetylamino-1-amino-ethyl)-N-pyridin-4-yl-benzamide], for which the half-inhibitory concentration (IC50) was 5 to 50 µM at PKC epsilon (setting [1]) and 0.5 to 5 µM against human ROCKα/ROCKII mix (setting [1]).

Take `N#Cc1cccc(C(=O)NCC(N)c2ccc(C(=O)Nc3ccncc3)cc2)c1` (centres unmarked) [Compound 94, 4-[1-amino-2-(3-cyano-benzoylamino)-ethyl]-N-pyridin-4-yl-benzamide]: the IC50 at PKC epsilon (setting [1]) and on human ROCKα/ROCKII mix (setting [1]) was 0.5 to 5 µM throughout.

In the case of `NC(CNC(=O)COc1ccccc1)c1ccc(C(=O)Nc2ccncc2)cc1` (centres unmarked) [Compound 156, 4-[1-Amino-2-(2-phenoxy-acetylamino)-ethyl]-N-pyridin-4-yl-benzamide], the IC50 on PKC epsilon (setting [1]) and at human ROCKα/ROCKII mix (setting [1]) was 0.05 to 0.5 µM each time.

Take `CC(=O)Nc1ccc(C(=O)NCC(N)c2ccc(C(=O)Nc3ccncc3)cc2)cc1` (centres unmarked) [Compound 83, 4-[1-amino-2-(4-acetylamino-benzoylamino)-ethyl]-N-pyridin-4-yl-benzamide]: the concentration for half-maximal inhibition (IC50) on PKC epsilon (setting [1]) was in the range of 5 to 50 µM; at human ROCKα/ROCKII mix (setting [1]), 0.5 to 5 µM.

For `CN(CC(N)c1ccc(C(=O)Nc2ccncc2)cc1)C(=O)C1(c2ccc(Cl)c(Cl)c2)CC1` (centres unmarked) [Compound 493, 4-(1-Amino-2-{[1-(3,4-dichloro-phenyl)-cyclopropanecarbonyl]-methyl-amino}-ethyl)-N-pyridin-4-yl-benzamide], the IC50 on PKC epsilon fell in the range of 5 to 50 µM; on human ROCKα/ROCKII mix it was 0.5 to 5 µM.

For `NC(CC(=O)NCc1cccc(Br)c1)c1ccc(C(=O)Nc2ccncc2)cc1` (centres unmarked) [Compound 260, 4-[1-Amino-2-(3-bromo-benzylcarbamoyl)-ethyl]-N-pyridin-4-yl-benzamide], the IC50 on PKC epsilon (setting [2]) lay in the range of 0.5 to 5 µM; at human ROCKα/ROCKII mix (setting [2]), 0.05 to 0.5 µM.

As for `NC(CC(=O)Nc1ccc(CO)cc1)c1ccc(C(=O)Nc2ccncc2)cc1` (centres unmarked) [Compound 320, 4-[1-Amino-2-(4-hydroxymethyl-phenyl-carbamoyl)-ethyl]-N-pyridin-4-yl-benzamide], the IC50 lay within 0.5 to 5 µM at PKC epsilon (setting [2]) and 0.05 to 0.5 µM at human ROCKα/ROCKII mix (setting [2]).

As for “4-(1-Amino-2-{[2-(4- trifluoromethyl-phenyl)- acetyl]-methyl- amino}-ethyl)- N-pyridin-4-yl-benzamide [Compound 458]”, the half-inhibitory concentration (IC50) at PKC epsilon fell in the range of 5 to 50 µM; on human ROCKα/ROCKII mix, 0.5 to 5 µM.

As for `NC(CNC(=O)NC1CCCCC1)c1ccc(C(=O)Nc2ccncc2)cc1` (centres unmarked) [Compound 5, 4-[1-amino-2-(3-cyclohexyl-ureido)-ethyl]-N-pyridin-4-yl-benzamide], the IC50 at PKC epsilon lay in the range of 5 to 50 µM; at human ROCKα/ROCKII mix, 0.5 to 5 µM.

In the case of `COc1cccc(CC(=O)N(C)CC(N)c2ccc(C(=O)Nc3ccncc3)cc2)c1` (centres unmarked) [Compound 426, 4-(1-Amino-2-{[2-(3-methoxy-phenyl)-acetyl}-methyl-amino}-ethyl)-N-pyridin-4-yl-benzamide], the IC50 on PKC epsilon was 5 to 50 µM; on human ROCKα/ROCKII mix, 0.05 to 0.5 µM.

`NC(c1ccc(C(=O)Nc2ccncc2)cc1)C1CCCN1C(=O)Cc1ccc(F)cc1Cl` (centres unmarked) [Compound 599, 4-(Amino-{1-[2-(2-chloro-4-fluoro-phenyl)-acetyl]-pyrrolidin-2-yl}-methyl)-N-pyridin-4-yl-benzamide]: the 50% inhibitory concentration (IC50) on PKC epsilon and against human ROCKα/ROCKII mix was 0.5 to 5 µM each time.

Consider `NC(CNC(=O)CNC(=O)c1ccccc1)c1ccc(C(=O)Nc2ccncc2)cc1` (centres unmarked) [Compound 55, 4-[1-Amino-2-(2-benzoylamino-acetylamino)-ethyl]-N-pyridin-4-yl-benzamide], for which the IC50 fell in the range of 5 to 50 µM at PKC epsilon (setting [1]) and 0.05 to 0.5 µM against human ROCKα/ROCKII mix (setting [1]).

Turning to `CN(CC(N)c1ccc(C(=O)Nc2ccncc2)cc1)C(=O)C(C)(C)c1ccc(F)c(Cl)c1` (centres unmarked) [Compound 505, 4-(1-Amino-2-{[2-(3-chloro-4-fluoro-phenyl)-2-methyl-propionyl]-methyl-amino}-ethyl)-N-pyridin-4-yl-benzamide], the half-maximal inhibitory concentration (IC50) was 5 to 50 µM on PKC epsilon and 0.5 to 5 µM against human ROCKα/ROCKII mix.

On to `COc1ccc(CNC(=O)CC(N)c2ccc(C(=O)Nc3ccncc3)cc2)cc1OC` (centres unmarked) [Compound 240, 4-[1-Amino-2-(3,4-dimethoxy-benzylcarbamoyl)-ethyl]-N-pyridin-4-yl-benzamide], for which the 50% inhibitory concentration (IC50) lay in the range of 5 to 50 µM at PKC epsilon (setting [2]) and 0.05 to 0.5 µM against human ROCKα/ROCKII mix (setting [2]).

For the compound `NC(CC(=O)NC1CCCc2ccccc21)c1ccc(C(=O)Nc2ccncc2)cc1` (centres unmarked) [Compound 223, 4-[1-Amino-2-(1,2,3,4-tetrahydro-naphtalen-1-ylcarbamoyl)-ethyl]-N-pyridin-4-yl-benzamide], the half-maximal inhibitory concentration (IC50) at PKC epsilon (setting [2]) and against human ROCKα/ROCKII mix (setting [2]) was 0.05 to 0.5 µM throughout.

As for “4-[1-Amino-2-(2,4- dimethoxy- benzylcarbamoyl)-ethyl]- N-pyridin-4-yl-benzamide [Compound 241]”, the values for the concentration for half-maximal inhibition (IC50) at PKC epsilon (setting [2]) and at human ROCKα/ROCKII mix (setting [2]) were 0.5 to 5 µM and 0.05 to 0.5 µM, respectively.

Turning to `NC(CC(=O)NCc1cccc(OC(F)(F)F)c1)c1ccc(C(=O)Nc2ccncc2)cc1` (centres unmarked) [Compound 270, 4-[1-Amino-2-(3-trifluoromethoxy-benzylcarbamoyl)-ethyl]-N-pyridin-4-yl-benzamide], the half-inhibitory concentration (IC50) on PKC epsilon (setting [2]) fell in the range of 0.5 to 5 µM; against human ROCKα/ROCKII mix (setting [2]), 0.05 to 0.5 µM.

Take `NC(c1ccc(C(=O)Nc2ccncc2)cc1)C1CCCN1C(=O)Cc1ccc(F)cc1F` (centres unmarked) [Compound 580, 4-(Amino-{1-[2-(2,4-difluoro-phenyl)-acetyl]-pyrrolidin-2-yl}-methyl)-N-pyridin-4-yl-benzamide]: the 50% inhibitory concentration (IC50) on PKC epsilon lay within 0.5 to 5 µM; against human ROCKα/ROCKII mix it was 0.05 to 0.5 µM.

Consider `NC(CC(=O)N[C@H]1CCc2ccccc21)c1ccc(C(=O)Nc2ccncc2)cc1` (stereo partly drawn) [Compound 357, 4-[1-Amino-2-((S)-indan-1-ylcarbamoyl)-ethyl]-N-pyridin-4-yl-benzamide], for which the results for the IC50 at PKC epsilon (setting [2]) and against human ROCKα/ROCKII mix (setting [2]) were 0.5 to 5 µM and 0.05 to 0.5 µM, respectively.
